{
  "source": "patent US20050002983A1",
  "about": "“Devices, methods, and compositions to prevent restenosis” (priority 2003, published 2005)",
  "key": {"[1]": {"tested_on": "Human aortic smooth muscle cells (AoSMCs)", "test": "MTS cell viability/proliferation assay, AoSMC, Days 0-5", "conditions": "for dose-response of cell viability (optical density): 10, 100, 1,000 nM, SMCs and HUVECs, Days 0-5", "procedure": "Human aortic smooth muscle cells (“AoSMCs”) and human umbilical vein endothelial cells (“HUVECs”) were plated on 96-well culture plates at a density of about 10,000 cells per square centimeter (10,000 cells/cm^2). The density was determined using growth curves determined by calculating the average absolute optical densities (“ODs”, defined as cellular OD—media only OD) for each plating concentration, for each day, and each cell type (AoSMC or HUVEC) over a five-day time period.\nPrior to experiments, the AoSMCs and HUVECS were thawed and independently propagated through two- or three population doublings following Clonetics recommendations and standard cell culture techniques. Clonetics Growth Media and Reagents were used without alteration in all aspects of the study described herein unless otherwise noted. […] SMGM contained: 500 ml SMBM-2 basal media, 5% FBS, and all recommended singlequot growth supplements (provided with SMGM-2 bulletkit) ECGM contained: 500 ml EBM basal media, 2% FBS, and all recommended singlequot growth supplements (provided with EGM-bulletkit).\nAfter initial plating all 96-well plates were placed in a standard 37° C., 5% CO2 incubator. Conditions, including media, were not changed except as detailed below. For consecutive 24-hour time-periods, from Day 1 to Day 5, a single 96-well plate was removed from the incubator.\nCell Preparation Source cells were selected at 70-80% confluency of the second or third population doubling since initial thaw. In order to synchronize cell cycle, source cells were changed from standard growth media to media containing 1% serum twenty-four hours prior to experiment (other growth factors were unchanged). On Day 0 of the experiment, source cells were removed from culture dishes by trypsinization (0.05×1 min.-2 min), quantified by hemacytometer after centrifuge (800 RPM×5 min.), and re-suspended in media to obtain a stock solution of about 25,000 cells/ml.\nThe drugs were dissolved in dimethylsulfoxide (“DMSO”) solvent to make stock solutions, which were then diluted serially in media to three study concentrations (10 nM; 100 nM; and 1,000 nM). The drugs at three concentration each, solvent without drug at three concentrations, and standard media were added independently to cells on the first day of the study only. Cells in two columns (16 wells) for each cell type on each day will not receive drug and serve as internal controls. Cellular viability and proliferation was assessed using the MTS assay for each cell type at each of the six time points.\nOn Day 1, six hours after initial plating, the media was removed from all wells by vacuum suction; and with the appropriate growth media-drug solution for each of three drugs at three concentrations described above was added to the wells. […]"}, "[2]": {"test": "Release kinetics of epothilone D from polymer matrices", "type": "physicochemical"}, "[3]": {"tested_on": "Human aortic smooth muscle cells", "test": "IC50 by CellTiter-Glo Luminescent Cell Viability Assay, smooth muscle cells", "type": "cell-based", "protocol": "The cells were seeded in duplicate, in opaque-walled 96-well microtiter plates at a cell density of 3,000 cells per well and allowed to attach overnight. Serial dilutions of each drug were added, and the cells were incubated for 96 hours. The IC50 values for the drugs was determined using the CellTiter-Glo Luminescent Cell Viability Assay (Promega, Madison, Wis.), which correlates with the number of live cells."}, "endothelial cells": {"tested_on": "endothelial cells", "test": "Cytotoxicity IC50 against endothelial cells", "type": "cell-based"}, "Solubility in PBS": {"test": "Solubility in PBS", "type": "physicochemical"}},
  "data": [
    {"smiles": "CO[C@H]1/C=C\\C=C(/C)C(=O)NC2=CC(=O)C(NCCN(C)C)=C(C[C@@H](C)C[C@H](OC)[C@H](O)[C@@H](C)/C=C(\\C)[C@@H]1OC(N)=O)C2=O", "note": "[17-DMAG, 17-[2-(dimethylamino)ethylamino]-17-desmethoxygeldanamycin]", "values": [
      {"measurement": "dose-response of cell viability (optical density)", "setting": "[1]", "result": "dose-response characteristics consistent with utility to reduce or prevent restenosis"},
      {"measurement": "selectivity for SMCs over ECs", "setting": "[1]; AoSMC vs HUVEC viability, 10-1,000 nM", "result": "relative selectivity for SMCs over ECs"}
    ]},
    {"smiles": "C/C1=C/C[C@@H](/C(C)=C/c2csc(C)n2)OC(=O)C[C@H](O)C(C)(C)C(=O)[C@H](C)[C@@H](O)[C@@H](C)CCC1", "note": "[epothilone D]", "values": [
      {"measurement": "release rate from polymer matrix", "setting": "[2]; from poly(lactide)", "result": "approximately 6 micrograms/day"},
      {"measurement": "release rate from polymer matrix", "setting": "[2]; from polyurethane", "result": 1.58, "unit": "micrograms/day"},
      {"measurement": "dose-response of cell viability (optical density)", "setting": "[1]", "result": "dose-response characteristics consistent with utility to reduce or prevent restenosis"}
    ]},
    {"smiles": "COC1=C2C[C@@H](C)C[C@H](OC)[C@H](O)[C@@H](C)/C=C(\\C)[C@H](OC(N)=O)[C@@H](OC)/C=C\\C=C(/C)C(=O)NC(=CC1=O)C2=O", "note": "[geldanamycin, reference compound]", "values": [
      {"measurement": "IC50", "setting": "[3]; Homo sapiens", "result": "~0.9", "unit": "nM"}
    ]},
    {"smiles": "C=CCNC1=C2C[C@@H](C)C[C@H](OC)[C@H](O)[C@@H](C)/C=C(\\C)[C@H](OC(N)=O)[C@@H](OC)/C=C\\C=C(/C)C(=O)NC(=CC1=O)C2=O", "note": "[17-AAG, 17-allylamino-17-desmethoxygeldanamycin]", "values": [
      {"measurement": "IC50", "setting": "[3]; smooth muscle cells", "result": "~10", "unit": "nM"},
      {"measurement": "IC50", "setting": "endothelial cells", "result": 350, "unit": "nM"},
      {"measurement": "solubility", "setting": "Solubility in PBS", "result": 60, "unit": "micrograms/mL"},
      {"measurement": "dose-response of cell viability (optical density)", "setting": "[1]", "result": "dose-response characteristics consistent with utility to reduce or prevent restenosis"}
    ]}
  ]
}
